Experiments:
[1] = target: Ephrin type-B receptor 1 (Homo sapiens) (UniProt P54762); assay: Inhibition of human EPHB1 assessed as residual activity at 1 uM using polyEY as substrate in presence of 33P-ATP by ProQinase assay relative to control
[2] = target: Calcium/calmodulin-dependent protein kinase kinase 2 (Homo sapiens) (UniProt Q96RR4); assay: Inhibition of human CAMKK2 assessed as residual activity at 1 uM using RBER-GSK3 as substrate in presence of 33P-ATP by ProQinase assay relative to control
Chain of Calcium/calmodulin-dependent protein kinase kinase 2 (Homo sapiens) (Q96RR4 2-588 limits assumed): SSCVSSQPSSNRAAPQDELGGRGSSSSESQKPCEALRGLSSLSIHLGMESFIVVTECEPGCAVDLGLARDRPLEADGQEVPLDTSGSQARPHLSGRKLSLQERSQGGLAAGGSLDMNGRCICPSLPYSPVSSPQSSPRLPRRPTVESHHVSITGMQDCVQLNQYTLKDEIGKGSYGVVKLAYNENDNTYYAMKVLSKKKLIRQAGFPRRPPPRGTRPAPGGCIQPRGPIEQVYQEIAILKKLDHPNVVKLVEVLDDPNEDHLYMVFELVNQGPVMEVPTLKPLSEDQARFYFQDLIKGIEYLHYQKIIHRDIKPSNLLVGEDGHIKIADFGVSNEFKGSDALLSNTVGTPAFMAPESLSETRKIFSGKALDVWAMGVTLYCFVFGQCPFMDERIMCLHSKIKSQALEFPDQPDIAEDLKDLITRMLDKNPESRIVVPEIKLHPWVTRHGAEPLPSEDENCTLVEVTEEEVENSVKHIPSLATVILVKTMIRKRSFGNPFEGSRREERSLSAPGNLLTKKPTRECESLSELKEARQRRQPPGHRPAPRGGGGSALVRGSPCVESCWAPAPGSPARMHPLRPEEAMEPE

[3] = target: Tyrosine-protein kinase Srms (Homo sapiens) (UniProt Q9H3Y6); assay: Inhibition of human SRMS assessed as residual activity at 1 uM using PolyEY as substrate in presence of 33P-ATP by ProQinase assay relative to control
Chain of Tyrosine-protein kinase Srms (Homo sapiens) (Q9H3Y6 whole entry): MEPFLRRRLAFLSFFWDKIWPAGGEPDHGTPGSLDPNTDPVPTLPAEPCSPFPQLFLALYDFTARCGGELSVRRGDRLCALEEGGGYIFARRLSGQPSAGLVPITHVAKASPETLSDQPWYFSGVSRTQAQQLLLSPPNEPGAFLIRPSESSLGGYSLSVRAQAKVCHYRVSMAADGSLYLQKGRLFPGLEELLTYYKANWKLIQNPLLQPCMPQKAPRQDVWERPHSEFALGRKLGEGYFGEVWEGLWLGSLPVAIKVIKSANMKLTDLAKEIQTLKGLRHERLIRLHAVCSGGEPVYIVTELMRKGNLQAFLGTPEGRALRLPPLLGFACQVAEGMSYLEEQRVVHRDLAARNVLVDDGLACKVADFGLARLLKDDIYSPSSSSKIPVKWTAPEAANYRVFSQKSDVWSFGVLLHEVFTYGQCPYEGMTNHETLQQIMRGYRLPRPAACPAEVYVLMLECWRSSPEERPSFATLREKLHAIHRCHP

[4] = target: T1, Serine/threonine-protein kinase BRSK1 (Homo sapiens) (UniProt Q8TDC3); assay: Inhibition of human BRSK1 assessed as residual activity at 1 uM using RBER-CHKtide as substrate in presence of 33P-ATP by ProQinase assay relative to control
T1 sequence (whole entry): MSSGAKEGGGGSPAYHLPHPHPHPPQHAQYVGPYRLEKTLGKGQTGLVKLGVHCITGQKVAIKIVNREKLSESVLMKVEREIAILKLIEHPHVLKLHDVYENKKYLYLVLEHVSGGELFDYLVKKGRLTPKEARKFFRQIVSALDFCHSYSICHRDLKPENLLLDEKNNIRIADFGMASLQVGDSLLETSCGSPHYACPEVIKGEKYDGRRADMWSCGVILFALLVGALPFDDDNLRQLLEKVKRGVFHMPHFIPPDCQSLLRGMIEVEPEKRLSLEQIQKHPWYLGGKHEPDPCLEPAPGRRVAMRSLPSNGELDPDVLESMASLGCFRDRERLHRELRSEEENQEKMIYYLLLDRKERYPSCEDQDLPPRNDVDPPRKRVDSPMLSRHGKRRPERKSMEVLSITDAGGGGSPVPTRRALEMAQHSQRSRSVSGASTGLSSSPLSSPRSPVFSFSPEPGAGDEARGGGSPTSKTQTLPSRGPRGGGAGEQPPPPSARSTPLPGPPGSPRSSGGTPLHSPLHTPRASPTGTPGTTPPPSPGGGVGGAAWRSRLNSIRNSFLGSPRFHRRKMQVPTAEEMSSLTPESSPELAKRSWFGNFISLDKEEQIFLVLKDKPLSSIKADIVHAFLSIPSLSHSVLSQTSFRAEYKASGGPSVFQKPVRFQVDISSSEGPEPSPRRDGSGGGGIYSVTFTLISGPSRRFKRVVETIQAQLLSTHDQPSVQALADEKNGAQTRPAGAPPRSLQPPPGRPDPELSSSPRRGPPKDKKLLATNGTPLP

[5] = target: Mitogen-activated protein kinase 1 (Homo sapiens) (UniProt P28482); assay: Inhibition of human ERK2 assessed as residual activity at 1 uM using RBER-CHKtide as substrate in presence of 33P-ATP by ProQinase assay relative to control
Chain of Mitogen-activated protein kinase 1 (Homo sapiens) (P28482 whole entry): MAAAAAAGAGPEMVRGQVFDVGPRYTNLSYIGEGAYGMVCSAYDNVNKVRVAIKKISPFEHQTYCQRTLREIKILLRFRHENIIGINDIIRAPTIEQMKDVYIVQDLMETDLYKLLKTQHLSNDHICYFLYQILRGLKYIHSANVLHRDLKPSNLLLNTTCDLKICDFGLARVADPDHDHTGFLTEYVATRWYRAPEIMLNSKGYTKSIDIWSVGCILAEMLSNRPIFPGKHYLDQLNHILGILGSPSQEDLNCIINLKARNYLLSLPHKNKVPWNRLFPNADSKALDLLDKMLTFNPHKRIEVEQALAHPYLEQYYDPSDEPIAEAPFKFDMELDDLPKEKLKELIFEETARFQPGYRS

[6] = test system: Mast/stem cell growth factor receptor Kit (Homo sapiens), P10721 [V559D,T670I]; assay: Inhibition of KIT V559D/T670I mutant (unknown origin) assessed as remaining activity at 1 uM by Kinome scan method relative to control
Chain of Mast/stem cell growth factor receptor Kit (Homo sapiens), P10721 [V559D,T670I] (P10721 whole entry V559D/T670I): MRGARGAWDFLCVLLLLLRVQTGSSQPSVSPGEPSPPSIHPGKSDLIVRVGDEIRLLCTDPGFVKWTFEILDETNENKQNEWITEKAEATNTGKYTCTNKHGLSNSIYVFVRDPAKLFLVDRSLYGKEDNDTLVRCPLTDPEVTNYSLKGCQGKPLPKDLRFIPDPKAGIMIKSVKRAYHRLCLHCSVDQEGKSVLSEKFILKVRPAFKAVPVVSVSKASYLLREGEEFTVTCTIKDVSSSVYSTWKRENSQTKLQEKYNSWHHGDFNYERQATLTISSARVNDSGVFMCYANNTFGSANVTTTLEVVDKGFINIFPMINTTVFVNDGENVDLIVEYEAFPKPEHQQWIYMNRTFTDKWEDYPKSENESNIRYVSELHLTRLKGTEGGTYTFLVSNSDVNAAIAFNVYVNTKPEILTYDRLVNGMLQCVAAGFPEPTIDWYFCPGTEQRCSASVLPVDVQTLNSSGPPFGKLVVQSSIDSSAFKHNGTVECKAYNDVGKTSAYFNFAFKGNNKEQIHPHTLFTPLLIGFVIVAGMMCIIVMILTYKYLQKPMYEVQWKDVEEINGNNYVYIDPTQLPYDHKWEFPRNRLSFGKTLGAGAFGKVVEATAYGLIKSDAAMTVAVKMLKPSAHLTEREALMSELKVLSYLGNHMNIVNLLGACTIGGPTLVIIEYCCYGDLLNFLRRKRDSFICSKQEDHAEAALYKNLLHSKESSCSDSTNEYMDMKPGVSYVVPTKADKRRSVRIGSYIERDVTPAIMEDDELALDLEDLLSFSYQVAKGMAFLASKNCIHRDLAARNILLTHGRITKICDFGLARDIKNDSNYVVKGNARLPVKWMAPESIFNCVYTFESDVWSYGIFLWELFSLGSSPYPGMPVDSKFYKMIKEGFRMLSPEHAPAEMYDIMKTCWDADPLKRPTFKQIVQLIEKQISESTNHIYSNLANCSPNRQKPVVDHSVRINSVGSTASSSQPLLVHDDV

[7] = target: T2, MAP/microtubule affinity-regulating kinase 4 (Homo sapiens) (UniProt Q96L34); assay: Inhibition of human MARK4 assessed as residual activity at 1 uM using RBER-CHKtide as substrate in presence of 33P-ATP by ProQinase assay relative to control
T2 sequence (whole entry): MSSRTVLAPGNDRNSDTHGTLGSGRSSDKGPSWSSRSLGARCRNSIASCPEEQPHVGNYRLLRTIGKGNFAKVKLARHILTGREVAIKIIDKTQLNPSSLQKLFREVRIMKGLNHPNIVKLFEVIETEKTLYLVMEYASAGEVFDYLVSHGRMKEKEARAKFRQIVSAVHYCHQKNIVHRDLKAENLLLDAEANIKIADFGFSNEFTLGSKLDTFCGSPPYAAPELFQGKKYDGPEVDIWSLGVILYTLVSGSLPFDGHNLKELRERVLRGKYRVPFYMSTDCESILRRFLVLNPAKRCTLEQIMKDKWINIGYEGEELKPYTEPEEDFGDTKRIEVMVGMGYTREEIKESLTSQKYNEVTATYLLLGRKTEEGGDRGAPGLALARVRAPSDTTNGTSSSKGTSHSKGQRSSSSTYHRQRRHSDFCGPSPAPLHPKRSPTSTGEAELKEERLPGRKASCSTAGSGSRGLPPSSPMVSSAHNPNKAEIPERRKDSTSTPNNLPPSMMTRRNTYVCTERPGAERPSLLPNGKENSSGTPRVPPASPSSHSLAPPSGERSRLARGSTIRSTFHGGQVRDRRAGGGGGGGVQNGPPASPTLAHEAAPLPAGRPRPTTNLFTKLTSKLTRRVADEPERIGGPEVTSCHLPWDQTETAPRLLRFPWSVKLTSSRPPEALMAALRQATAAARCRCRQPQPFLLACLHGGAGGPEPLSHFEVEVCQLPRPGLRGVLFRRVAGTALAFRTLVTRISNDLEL

[8] = target: Serine/threonine-protein kinase PAK 2 (Homo sapiens) (UniProt Q13177); assay: Inhibition of PAK2 (unknown origin) assessed as remaining activity at 1 uM by Kinome scan method relative to control
Chain of Serine/threonine-protein kinase PAK 2 (Homo sapiens) (Q13177 whole entry): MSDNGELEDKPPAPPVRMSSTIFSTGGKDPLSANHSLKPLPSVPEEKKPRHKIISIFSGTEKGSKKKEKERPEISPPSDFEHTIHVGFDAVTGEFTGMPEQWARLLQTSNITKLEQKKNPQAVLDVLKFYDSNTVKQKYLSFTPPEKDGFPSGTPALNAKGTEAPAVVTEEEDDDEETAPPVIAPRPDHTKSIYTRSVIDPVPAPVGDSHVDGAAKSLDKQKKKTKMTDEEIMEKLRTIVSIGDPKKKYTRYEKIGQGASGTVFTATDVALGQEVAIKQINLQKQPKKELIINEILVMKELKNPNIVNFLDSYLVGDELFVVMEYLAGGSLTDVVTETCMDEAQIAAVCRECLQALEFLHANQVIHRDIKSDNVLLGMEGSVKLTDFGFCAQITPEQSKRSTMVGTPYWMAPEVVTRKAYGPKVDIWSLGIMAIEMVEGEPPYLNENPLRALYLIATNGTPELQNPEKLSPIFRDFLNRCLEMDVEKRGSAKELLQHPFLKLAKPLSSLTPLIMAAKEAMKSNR

[9] = target: Hepatocyte growth factor receptor (Homo sapiens) (UniProt P08581); assay: Inhibition of human MET assessed as residual activity at 1 uM using poly(Ala,Glu,Lys,Tyr)6:2:5:1 as substrate in presence of 33P-ATP by ProQinase assay relative to control

Chain of Ephrin type-B receptor 1 (Homo sapiens) (P54762 whole entry): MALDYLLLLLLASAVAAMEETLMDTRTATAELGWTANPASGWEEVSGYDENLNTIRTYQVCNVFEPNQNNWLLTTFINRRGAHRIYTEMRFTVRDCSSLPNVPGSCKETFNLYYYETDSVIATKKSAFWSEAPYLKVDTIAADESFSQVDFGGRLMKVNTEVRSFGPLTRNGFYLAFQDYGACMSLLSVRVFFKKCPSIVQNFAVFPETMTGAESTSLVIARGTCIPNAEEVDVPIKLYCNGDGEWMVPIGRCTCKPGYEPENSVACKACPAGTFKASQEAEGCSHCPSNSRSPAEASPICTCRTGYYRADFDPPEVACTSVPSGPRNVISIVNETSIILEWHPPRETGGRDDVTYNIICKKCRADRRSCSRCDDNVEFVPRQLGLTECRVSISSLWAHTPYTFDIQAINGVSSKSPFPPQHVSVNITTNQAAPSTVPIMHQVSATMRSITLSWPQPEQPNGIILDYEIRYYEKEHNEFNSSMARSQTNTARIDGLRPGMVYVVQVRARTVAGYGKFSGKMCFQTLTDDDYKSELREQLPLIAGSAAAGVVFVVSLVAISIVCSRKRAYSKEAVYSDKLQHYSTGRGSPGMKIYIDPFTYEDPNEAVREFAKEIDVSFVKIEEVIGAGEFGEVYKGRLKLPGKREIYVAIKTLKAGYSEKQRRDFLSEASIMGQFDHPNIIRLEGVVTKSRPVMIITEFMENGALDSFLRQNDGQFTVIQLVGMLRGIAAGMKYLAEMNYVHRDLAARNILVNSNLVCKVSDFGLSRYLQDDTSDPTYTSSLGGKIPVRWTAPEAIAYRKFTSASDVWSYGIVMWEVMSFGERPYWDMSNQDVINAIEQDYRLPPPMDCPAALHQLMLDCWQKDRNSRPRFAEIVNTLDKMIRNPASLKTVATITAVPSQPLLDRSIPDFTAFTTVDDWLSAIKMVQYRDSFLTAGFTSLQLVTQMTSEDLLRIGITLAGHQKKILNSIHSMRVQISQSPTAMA

O=C1c2ccc(Nc3ccc(F)cc3F)cc2CCc2ccc(OC[C@H](O)CO)cc21 [Skepinone-L]
Activity [1]: 116% | Activity [2]: 97% | Activity [3]: 95% | Activity [4]: 94% | Activity [5]: 83% | Activity [6]: 94% | Activity [7]: 96% | Activity [8]: 100% | Activity [9]: 108%

Source: ChEMBL document CHEMBL5696441 (Nat Chem Biol, 2011)
